Results reported in US9062041B2 (Bayer Intellectual Property GmbH, priority 2011, dated 2015).

Tests used:
Format in all cases: cell-based
[1] = biological target: EP2 subtype of the human PGE2 receptor (Homo sapiens, UniProt P43116); experiment: cAMP antagonism test on the human EP2 receptor (HTRF cAMP detection); details: hEP2 receptor, read-out: Antagonism hEP2 IC50
Method in brief: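 Read-out is a competitive HTRF for cAMP: lysate cAMP displaces cAMP-d2 from Eu cryptate-labelled antibody, and antagonism raises the 665/620 nm ratio. Compound (0.8 nM–16.5 μM) added to EP2 cells 20 min at RT before 60 min PGE2 challenge (3× stock 1.5 nM) with IBMX, followed by 20 min lysis.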

[2] = biological target: EP4 subtype of the human PGE2 receptor (Homo sapiens, UniProt P35408); experiment: cAMP antagonism test on the human EP4 receptor (HTRF cAMP detection); details: selectivity towards hEP4, IC50 measured by cAMP antagonism test
Sequence of EP4 subtype of the human PGE2 receptor (P35408 whole entry): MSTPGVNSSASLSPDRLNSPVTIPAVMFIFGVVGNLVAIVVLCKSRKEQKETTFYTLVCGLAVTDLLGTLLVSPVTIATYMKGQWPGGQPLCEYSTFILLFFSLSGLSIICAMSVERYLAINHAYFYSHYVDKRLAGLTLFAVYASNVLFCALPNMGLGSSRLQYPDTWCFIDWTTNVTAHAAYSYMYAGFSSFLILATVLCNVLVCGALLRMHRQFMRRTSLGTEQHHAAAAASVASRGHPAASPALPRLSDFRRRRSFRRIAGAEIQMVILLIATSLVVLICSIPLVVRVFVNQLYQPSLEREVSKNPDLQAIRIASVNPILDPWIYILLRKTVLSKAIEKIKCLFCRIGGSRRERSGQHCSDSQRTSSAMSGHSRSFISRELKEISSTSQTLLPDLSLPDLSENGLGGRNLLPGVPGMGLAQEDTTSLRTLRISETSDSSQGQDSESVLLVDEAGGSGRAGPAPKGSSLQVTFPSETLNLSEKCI
Method in brief: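 Competitive HTRF cAMP read-out (cAMP-d2 vs Eu-cryptate anti-cAMP antibody, 665/620 nm ratio) on lysed human EP4 cells. Compound (0.8 nM–16.5 μM) applied 20 min at RT before 60 min PGE2 challenge (3× solution 0.3 nM, IBMX present); 20 min lysis precedes reading.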

human PGD receptor = biological target: T1, human PGD receptor (Homo sapiens, UniProt Q13258); experiment: cAMP antagonism test on the human prostaglandin D receptor (HTRF cAMP detection); details: selectivity towards hDP, IC50 measured by cAMP antagonism test
T1 sequence (Q13258 1-359): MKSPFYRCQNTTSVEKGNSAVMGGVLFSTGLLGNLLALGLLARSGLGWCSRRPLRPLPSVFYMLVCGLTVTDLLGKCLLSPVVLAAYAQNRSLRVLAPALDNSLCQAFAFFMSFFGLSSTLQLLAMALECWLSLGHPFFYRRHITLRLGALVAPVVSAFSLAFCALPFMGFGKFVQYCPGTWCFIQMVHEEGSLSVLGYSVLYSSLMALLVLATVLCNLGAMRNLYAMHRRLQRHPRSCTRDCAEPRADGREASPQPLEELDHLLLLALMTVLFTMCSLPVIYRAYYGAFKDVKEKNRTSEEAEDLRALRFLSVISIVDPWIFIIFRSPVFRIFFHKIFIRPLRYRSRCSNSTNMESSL
Method in brief: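 HTRF competition read-out (665/620 nm ratio ×10000), where higher FRET means less cAMP, i.e. antagonism. Compounds (0.8 nM–16.5 μM) were preincubated 20 min at RT with cells and cAMP-d2, PGD2 (3× solution, 6 nM) in IBMX-containing PBS added for 30 min at RT, then cells lysed 20 min.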

Sequence of EP2 subtype of the human PGE2 receptor (P43116 whole entry): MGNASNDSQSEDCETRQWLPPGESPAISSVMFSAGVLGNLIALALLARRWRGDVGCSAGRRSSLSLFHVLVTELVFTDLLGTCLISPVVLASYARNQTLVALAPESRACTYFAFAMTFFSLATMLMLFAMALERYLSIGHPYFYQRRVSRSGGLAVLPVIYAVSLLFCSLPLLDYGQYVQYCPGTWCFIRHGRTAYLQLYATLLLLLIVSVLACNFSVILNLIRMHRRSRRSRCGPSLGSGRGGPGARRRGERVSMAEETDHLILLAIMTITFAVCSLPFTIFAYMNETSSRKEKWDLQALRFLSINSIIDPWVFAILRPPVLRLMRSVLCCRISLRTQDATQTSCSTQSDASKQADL

Row | IC50 [1] | Selectivity hEP2/hEP4 [2] | Selectivity hEP2/hDP (human PGD receptor) | SMILES
1 | 128 nM | xxx (xxx > 100) | xxx (xxx > 100) | COc1cccc(-c2ccc(C(=O)N3CCC(Cn4cc5c(C)c(C(=O)NCC(F)(F)F)ccc5n4)CC3)cc2)n1 [Example 323, 2-({1-[4-(6-methoxypyridin-2-yl)benzoyl]piperidin-4-yl}methyl)-4-methyl-N-(2,2,2-trifluoroethyl)-2H-indazol-5-carboxamide]
2 | 460 nM | xx (xx: 10-100) | xx (xx: 10-100) | Cc1ccc(-c2ccc(C(=O)N3CCC(Cn4cc5c(C)c(C(=O)NCC(F)(F)F)ccc5n4)CC3)cc2)nc1 [Example 324, 4-methyl-2-({1-[4-(5-methylpyridin-2-yl)benzoyl]piperidin-4-yl}methyl)-N-(2,2,2-trifluoroethyl)-2H-indazol-5-carboxamide]
3 | 321 nM | xx (xx: 10-100) | xx (xx: 10-100) | Cc1c(C(=O)NCC(F)(F)F)ccc2nn(CC3CCN(C(=O)c4ccc(-c5ccc(F)cn5)cc4)CC3)cc12 [Example 325, 2-({1-[4-(5-fluoropyridin-2-yl)benzoyl]piperidin-4-yl}methyl)-4-methyl-N-(2,2,2-trifluoroethyl)-2H-indazol-5-carboxamide]
4 | 485 nM | xx (xx: 10-100) | xx (xx: 10-100) | COc1ccc(-c2ccc(C(=O)N3CCC(Cn4cc5c(C)c(C(=O)NCC(F)(F)F)ccc5n4)CC3)cc2)nc1 [Example 326, 2-({1-[4-(5-methoxypyridin-2-yl)benzoyl]piperidin-4-yl}methyl)-4-methyl-N-(2,2,2-trifluoroethyl)-2H-indazol-5-carboxamide]
5 | 1210 nM | xx (xx: 10-100) | xx (xx: 10-100) | Cc1ncc(-c2ccc(C(=O)N3CCC(Cn4cc5c(C)c(C(=O)NCC(F)(F)F)ccc5n4)CC3)cc2)cn1 [Example 327, 4-methyl-2-({1-[4-(2-methylpyrimidin-5-yl)benzoyl]piperidin-4-yl}methyl)-N-(2,2,2-trifluoroethyl)-2H-indazol-5-carboxamide]
6 | 256 nM | xx (xx: 10-100) | xx (xx: 10-100) | Cc1c(C(=O)NCC(F)(F)F)ccc2nn(CC3CCN(C(=O)c4ccc(-c5cnc(C(F)(F)F)nc5)cc4)CC3)cc12 [Example 328, 4-methyl-N-(2,2,2-trifluoroethyl)-2-[(1-{4-[2-(trifluoromethyl)pyrimidin-5-yl]-benzoyl}piperidin-4-yl)methyl]-2H-indazol-5-carboxamide]
7 | 232 nM | xx (xx: 10-100) | xx (xx: 10-100) | Cc1c(C(=O)NCC(F)(F)F)ccc2nn(CC3CCN(C(=O)c4ccc(-c5cccc(C(F)(F)F)n5)cc4)CC3)cc12 [Example 329, 4-methyl-N-(2,2,2-trifluoroethyl)-2-[(1-{4-[6-(trifluoromethyl)pyridin-2-yl]-benzoyl}piperidin-4-yl)methyl]-2H-indazol-5-carboxamide]
8 | 9.53 nM | xxx (xxx > 100) | xxx (xxx > 100) | COCCNC(=O)c1ccc2nn(CC3CCN(C(=O)c4ccc(Oc5ccc(C#N)cc5)cc4)CC3)cc2c1C [Example 330, 2-({1-[4-(4-cyanophenoxy)benzoyl]piperidin-4-yl}methyl)-N-(2-methoxyethyl)-4-methyl-2H-indazol-5-carboxamide]
9 | 9.47 nM | xxx (xxx > 100) | xxx (xxx > 100) | COCCNC(=O)c1ccc2nn(CC3CCN(C(=O)c4cn(C)c5ccccc45)CC3)cc2c1C [Example 331, N-(2-methoxyethyl)-4-methyl-2-({1-[(1-methyl-1H-indol-3-yl)carbonyl]-piperidin-4-yl}methyl)-2H-indazol-5-carboxamide]
10 | 5.47 nM | xxx (xxx > 100) | xxx (xxx > 100) | COCCNC(=O)c1ccc2nn(CC3CCN(C(=O)c4ccc(Br)c(C)c4)CC3)cc2c1C [Example 332, 2-{[1-(4-bromo-3-methylbenzoyl)piperidin-4-yl]methyl}-N-(2-methoxyethyl)-4-methyl-2H-indazol-5-carboxamide]
11 | 6.42 nM | xxx (xxx > 100) | xxx (xxx > 100) | COCCNC(=O)c1ccc2nn(CC3CCN(C(=O)c4ccc(C(C)(C)C)cc4)CC3)cc2c1C [Example 333, 2-{[1-(4-tert-butylbenzoyl)piperidin-4-yl]methyl}-N-(2-methoxyethyl)-4-methyl-2H-indazol-5-carboxamide]
12 | 74.2 nM | xxx (xxx > 100) | xxx (xxx > 100) | COCCNC(=O)c1ccc2nn(CC3CCN(C(=O)c4ccc(C(C)(C)O)cc4)CC3)cc2c1C [Example 334, 2-({1-[4-(1-hydroxy-1-methylethyl)benzoyl]piperidin-4-yl}methyl)-N-(2-methoxyethyl)-4-methyl-2H-indazol-5-carboxamide]
13 | 5.09 nM | xxx (xxx > 100) | xxx (xxx > 100) | COCCNC(=O)c1ccc2nn(CC3CCN(C(=O)c4ccc(C5CCCCC5)cc4)CC3)cc2c1C [Example 335, 2-{[1-(4-cyclohexylbenzoyl)piperidin-4-yl]methyl}-N-(2-methoxyethyl)-4-methyl-2H-indazol-5-carboxamide]
14 | 5.59 nM | xxx (xxx > 100) | xxx (xxx > 100) | COCCNC(=O)c1ccc2nn(CC3CCN(C(=O)c4ccc5cc(OC)ccc5c4)CC3)cc2c1C [Example 336, N-(2-methoxyethyl)-2-{[1-(6-methoxy-2-naphthoyl)piperidin-4-yl]methyl}-4-methyl-2H-indazol-5-carboxamide]
15 | 18.1 nM | xxx (xxx > 100) | xxx (xxx > 100) | COCCNC(=O)c1ccc2nn(CC3CCN(C(=O)c4cnc(-c5ccccc5)s4)CC3)cc2c1C [Example 337, N-(2-methoxyethyl)-4-methyl-2-({1-[(2-phenylthiazol-5-yl)carbonyl]piperidin-4-yl}methyl)-2H-indazol-5-carboxamide]
16 | 28 nM | xxx (xxx > 100) | xxx (xxx > 100) | COCCNC(=O)c1ccc2nn(CC3CCN(C(=O)c4nc5ccccc5n4C)CC3)cc2c1C [Example 338, N-(2-methoxyethyl)-4-methyl-2-({1-[(1-methyl-1H-benzimidazol-2-yl)carbonyl]-piperidin-4-yl}methyl)-2H-indazol-5-carboxamide]
17 | 7.15 nM | xxx (xxx > 100) | xxx (xxx > 100) | COCCNC(=O)c1ccc2nn(CC3CCN(C(=O)c4cnc(-c5ccccc5)o4)CC3)cc2c1C [Example 339, N-(2-methoxyethyl)-4-methyl-2-({1-[(2-phenyloxazol-5-yl)carbonyl]piperidin-4-yl}methyl)-2H-indazol-5-carboxamide]
18 | 19.9 nM | xxx (xxx > 100) | xxx (xxx > 100) | COCCNC(=O)c1ccc2nn(CC3CCN(C(=O)c4nc5ccccc5o4)CC3)cc2c1C [Example 340, 2-{[1-(benzoxazol-2-ylcarbonyl)piperidin-4-yl]methyl}-N-(2-methoxyethyl)-4-methyl-2H-indazol-5-carboxamide]
19 | 55.3 nM | xxx (xxx > 100) | xxx (xxx > 100) | COCCNC(=O)c1ccc2nn(CC3CCN(C(=O)c4ccc(C(C)(C)C#N)cc4)CC3)cc2c1C [Example 341, 2-({1-[4-(1-cyano-1-methylethyl)benzoyl]piperidin-4-yl}methyl)-N-(2-methoxy-ethyl)-4-methyl-2H-indazol-5-carboxamide]
20 | 103 nM | xxx (xxx > 100) | xxx (xxx > 100) | COCCNC(=O)c1ccc2nn(CC3CCN(C(=O)c4ccc(Oc5ncccn5)cc4)CC3)cc2c1C [Example 342, N-(2-methoxyethyl)-4-methyl-2-({1-[4-(pyrimidin-2-yloxy)benzoyl]piperidin-4-yl}methyl)-2H-indazol-5-carboxamide]
21 | 42.4 nM | xxx (xxx > 100) | xxx (xxx > 100) | COCCNC(=O)c1ccc2nn(CC3CCN(C(=O)c4ccc(Oc5cccnc5)cc4)CC3)cc2c1C [Example 343, N-(2-methoxyethyl)-4-methyl-2-({1-[4-(3-pyridyloxy)benzoyl]piperidin-4-yl}methyl)-2H-indazol-5-carboxamide]
